{
  "source": "ChEMBL document CHEMBL6127034",
  "about": "“Design, synthesis and biological evaluation of a novel PAK1 degrader for the treatment of triple negative breast cancer” (Bioorg Med Chem, 2024)",
  "key": {"[1]": {"target": "T1, von Hippel-Lindau disease tumor suppressor/Serine/threonine-protein kinase PAK 1 (Homo sapiens, UniProt Q13153+P40337)", "assay": "PROTAC activity at VHL/PAK1 in human MDA-MB-231 cells assessed as induction of protein degradation at 2.5 uM incubated for 48 hrs by Western blot analysis relative to control", "assay_type": "cell-based"}, "[2]": {"target": "T1, von Hippel-Lindau disease tumor suppressor/Serine/threonine-protein kinase PAK 1", "assay": "PROTAC activity at VHL/PAK1 in human MDA-MB-231 cells assessed as induction of protein degradation at 0.1 uM incubated for 48 hrs by Western blot analysis relative to control", "assay_type": "cell-based"}, "[3]": {"target": "T1, von Hippel-Lindau disease tumor suppressor/Serine/threonine-protein kinase PAK 1", "assay": "PROTAC activity at VHL/PAK1 in human MDA-MB-231 cells assessed as fold change in protein expression at 2.5 uM incubated for 48 hrs by Western blot analysis relative to control", "assay_type": "cell-based"}, "[4]": {"target": "T2, Serine/threonine-protein kinase PAK 1 (Homo sapiens, UniProt Q13153)", "T2 sequence (Q13153 whole entry)": "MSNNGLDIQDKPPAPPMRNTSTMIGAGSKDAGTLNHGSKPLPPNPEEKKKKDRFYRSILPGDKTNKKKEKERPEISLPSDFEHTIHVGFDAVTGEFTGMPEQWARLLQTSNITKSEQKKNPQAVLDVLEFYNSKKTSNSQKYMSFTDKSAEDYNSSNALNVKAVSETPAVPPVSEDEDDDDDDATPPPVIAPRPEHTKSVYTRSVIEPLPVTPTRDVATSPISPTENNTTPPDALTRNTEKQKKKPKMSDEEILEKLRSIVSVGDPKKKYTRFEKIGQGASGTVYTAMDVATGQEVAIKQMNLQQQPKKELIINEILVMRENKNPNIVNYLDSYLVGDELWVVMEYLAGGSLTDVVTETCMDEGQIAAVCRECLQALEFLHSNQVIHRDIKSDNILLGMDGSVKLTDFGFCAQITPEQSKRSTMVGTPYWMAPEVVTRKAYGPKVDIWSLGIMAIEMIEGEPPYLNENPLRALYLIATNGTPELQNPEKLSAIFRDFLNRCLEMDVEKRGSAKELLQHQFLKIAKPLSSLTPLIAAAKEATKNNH", "assay": "Binding affinity to CM5 chip-immobilized recombinant PAK1 (unknown origin) assessed as dissociation constant by SPR analysis"}, "[5]": {"target": "T1, von Hippel-Lindau disease tumor suppressor/Serine/threonine-protein kinase PAK 1", "assay": "PROTAC activity at VHL/PAK1 in human MDA-MB-231 cells assessed as induction of protein degradation incubated for 48 hrs by Western blot analysis", "assay_type": "cell-based"}, "[6]": {"target": "T1, von Hippel-Lindau disease tumor suppressor/Serine/threonine-protein kinase PAK 1", "assay": "PROTAC activity at VHL/PAK1 in human MDA-MB-231 cells assessed as induction of protein degradation incubated for 48 hrs in presence of Bortezomib by Western blot analysis", "assay_type": "cell-based"}, "[7]": {"target": "T1, von Hippel-Lindau disease tumor suppressor/Serine/threonine-protein kinase PAK 1", "assay": "PROTAC activity at VHL/PAK1 in human MDA-MB-231 cells assessed as induction of protein degradation incubated for 48 hrs in presence of VHL by Western blot analysis", "assay_type": "cell-based"}, "[8]": {"target": "T2, Serine/threonine-protein kinase PAK 1", "assay": "Inhibition of PAK1 in human MDA-MB-231 cells at 5 uM incubated for 24 hrs by immunofluorescence based analysis", "assay_type": "cell-based"}, "[9]": {"target": "T2, Serine/threonine-protein kinase PAK 1", "assay": "Inhibition of PAK1 in human MDA-MB-231 cells incubated upto 48 hrs by Western blot analysis", "assay_type": "cell-based"}, "[10]": {"target": "T2, Serine/threonine-protein kinase PAK 1", "assay": "Inhibition of PAK1 phosphorylation at S144 in human MDA-MB-231 cells incubated upto 48 hrs by Western blot analysis", "assay_type": "cell-based"}, "[11]": {"target": "T2, Serine/threonine-protein kinase PAK 1", "assay": "Inhibition of PAK1 phosphorylation at S199 in human MDA-MB-231 cells incubated upto 48 hrs by Western blot analysis", "assay_type": "cell-based"}, "[12]": {"target": "Serine/threonine-protein kinase PAK 3 (Homo sapiens) (UniProt O75914)", "sequence (O75914 whole entry, looked up)": "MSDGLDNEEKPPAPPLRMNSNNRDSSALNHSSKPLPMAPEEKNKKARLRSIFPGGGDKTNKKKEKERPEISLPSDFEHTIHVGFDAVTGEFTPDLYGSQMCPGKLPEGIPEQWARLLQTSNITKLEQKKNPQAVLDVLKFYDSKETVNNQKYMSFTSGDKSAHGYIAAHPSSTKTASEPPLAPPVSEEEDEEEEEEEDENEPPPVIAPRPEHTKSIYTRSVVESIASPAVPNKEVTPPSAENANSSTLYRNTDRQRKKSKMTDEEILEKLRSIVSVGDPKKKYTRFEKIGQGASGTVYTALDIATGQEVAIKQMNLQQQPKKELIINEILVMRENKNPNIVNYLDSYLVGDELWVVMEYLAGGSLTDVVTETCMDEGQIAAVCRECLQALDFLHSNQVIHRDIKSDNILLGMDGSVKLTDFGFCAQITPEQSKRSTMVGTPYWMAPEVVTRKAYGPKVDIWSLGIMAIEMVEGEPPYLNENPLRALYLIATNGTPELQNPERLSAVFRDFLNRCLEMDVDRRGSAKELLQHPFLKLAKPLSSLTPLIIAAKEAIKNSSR", "assay": "Inhibition of PAK3 in human MDA-MB-231 cells incubated upto 48 hrs by Western blot analysis", "assay_type": "cell-based"}, "[13]": {"system": "MDA-MB-231", "assay": "Induction of apoptosis in human MDA-MB-231 cells assessed as viable cells at 2.5 to 10 uM incubated for 12 hrs by Annexin V-FITC/PI staining based flow cytometry (reference value: 94.8 %)", "assay_type": "functional", "details": "dose 2.5-10 µM"}, "[14]": {"system": "MDA-MB-231", "assay": "Induction of apoptosis in human MDA-MB-231 cells assessed as early apoptotic cells at 2.5 to 10 uM incubated for 24 hrs by Annexin V-FITC/PI staining based flow cytometry (reference value: 1.70 %)", "assay_type": "functional", "details": "dose 2.5-10 µM"}, "[15]": {"system": "MDA-MB-231", "assay": "Induction of apoptosis in human MDA-MB-231 cells assessed as viable cells at 2.5 to 10 uM incubated for 48 hrs by Annexin V-FITC/PI staining based flow cytometry (reference value: 94.8 %)", "assay_type": "functional", "details": "dose 2.5-10 µM"}, "[16]": {"system": "MDA-MB-231", "assay": "Induction of apoptosis in human MDA-MB-231 cells assessed as early apoptotic cells at 2.5 to 10 uM incubated for 48 hrs by Annexin V-FITC/PI staining based flow cytometry (reference value: 1.70 %)", "assay_type": "functional", "details": "dose 2.5-10 µM"}, "[17]": {"system": "MDA-MB-231", "assay": "Induction of apoptosis in human MDA-MB-231 cells assessed as necrotic cells at 2.5 to 10 uM incubated for 48 hrs by Annexin V-FITC/PI staining based flow cytometry (reference value: 1.08 %)", "assay_type": "functional", "details": "dose 2.5-10 µM"}, "[18]": {"system": "MDA-MB-231", "assay": "Induction of apoptosis in human MDA-MB-231 cells assessed as increase in cleaved caspase-9 level at 2.5 to 10 uM incubated upto 48 hrs by Western blot analysis", "assay_type": "functional, cell-based", "details": "dose 2.5-10 µM"}, "[19]": {"system": "MDA-MB-231", "assay": "Induction of apoptosis in human MDA-MB-231 cells assessed as increase in cleaved caspase-3 level at 2.5 to 10 uM incubated upto 48 hrs by Western blot analysis", "assay_type": "functional, cell-based", "details": "dose 2.5-10 µM"}, "[20]": {"system": "MDA-MB-231", "assay": "Inhibition of cell migration in human MDA-MB-231 cells upto 10 uM incubated for 24 hrs by transwell assay", "assay_type": "functional, cell-based"}, "[21]": {"system": "MDA-MB-231", "assay": "Inhibition of cell migration in human MDA-MB-231 cells assessed as decrease in MMP-2 level by Western blot analysis", "assay_type": "functional, cell-based", "details": "time <= 48.0 hrs, TDE = time-dependent effect"}, "[22]": {"system": "MDA-MB-231", "assay": "Inhibition of cell proliferation of human MDA-MB-231 cells at 2.5 uM by crystal violet staining based colony formation assay", "assay_type": "functional"}, "[23]": {"system": "MDA-MB-231", "assay": "Inhibition of 3D-spherioid formation of human MDA-MB-231 cells at 2.5 uM by crystal violet staining based colony formation assay", "assay_type": "functional, cell-based"}, "[24]": {"system": "MDA-MB-231", "assay": "Inhibition of cell migration in human MDA-MB-231 cells at 2.5 uM incubated upto 48 hrs by wound healing assay", "assay_type": "functional, cell-based"}, "[25]": {"system": "MDA-MB-231", "assay": "Antitumor activity against human MDA-MB-231 cells xenografted in BALB/c mouse assessed as reduction in tumor weight at 20 mg/kg, ip qd for 12 days", "assay_type": "functional, organism-based", "details": "time 12.0 day"}, "[26]": {"system": "MDA-MB-231", "assay": "Antitumor activity against human MDA-MB-231 cells xenografted in BALB/c mouse assessed as reduction in tumor volume at 20 mg/kg, ip qd for 12 days", "assay_type": "functional, organism-based", "details": "time 12.0 day"}, "[27]": {"assay": "Toxicity in BALB/c mouse xenografted with human MDA-MB-231 cells assessed as body weight change at 20 mg/kg, ip qd for 12 days", "assay_type": "organism-based", "details": "in vivo, 288 h, time 12 day"}, "[28]": {"system": "MDA-MB-231", "assay": "Inhibition of cell proliferation of human MDA-MB-231 cells xenografted in BALB/c mouse assessed as reduction in Ki-67 level at 20 mg/kg, ip qd for 12 days by IHC analysis", "assay_type": "functional, organism-based", "details": "time 12.0 day"}, "[29]": {"target": "T2, Serine/threonine-protein kinase PAK 1", "assay": "In vivo inhibition of PAK1 in human MDA-MB-231 cells xenografted in BALB/c mouse at 20 mg/kg, ip qd for 12 days by IHC analysis", "assay_type": "functional, organism-based", "details": "time 12.0 day"}, "[30]": {"target": "T2, Serine/threonine-protein kinase PAK 1", "assay": "In vivo inhibition of PAK1 in human MDA-MB-231 cells xenografted in BALB/c mouse at 20 mg/kg, ip qd for 12 days by Western blot analysis", "assay_type": "functional, organism-based", "details": "time 12.0 day"}, "[31]": {"target": "T2, Serine/threonine-protein kinase PAK 1", "assay": "In vivo inhibition of PAK1 phosphorylation at S144 in human MDA-MB-231 cells xenografted in BALB/c mouse at 20 mg/kg, ip qd for 12 days by Western blot analysis", "assay_type": "functional, organism-based", "details": "time 12.0 day"}, "[32]": {"system": "MDA-MB-231", "assay": "Induction of apoptosis in human MDA-MB-231 cells xenografted in BALB/c mouse assessed as increase in Bax level at 20 mg/kg, ip qd for 12 days by Western blot analysis", "assay_type": "functional, organism-based", "details": "time 12.0 day"}, "[33]": {"system": "MDA-MB-231", "assay": "Induction of apoptosis in human MDA-MB-231 cells xenografted in BALB/c mouse assessed as increase in PARP level at 20 mg/kg, ip qd for 12 days by Western blot analysis", "assay_type": "functional, organism-based", "details": "time 12.0 day"}, "[34]": {"system": "MDA-MB-231", "assay": "Induction of apoptosis in human MDA-MB-231 cells xenografted in BALB/c mouse assessed as decrease in ERK1/2 phosphorylation at Thr202/Tyr204 at 20 mg/kg, ip qd for 12 days by Western blot analysis", "assay_type": "functional, organism-based", "details": "time 12.0 day"}},
  "note": "The source made the active and inactive calls. No cut-off for these calls is given here.",
  "data": [
    {"smiles": "Cc1ncsc1-c1ccc([C@H](C)NC(=O)[C@@H]2C[C@@H](O)CN2C(=O)[C@@H](NC(=O)CCc2cn(CCCCCCCn3c(=O)c(-c4ccc(Cl)cc4Cl)cc4cnc(NC5CC5)nc43)nn2)C(C)(C)C)cc1", "values": [
      {"measurement": "Activity", "setting": "[1]", "value": 71, "unit": "%"},
      {"measurement": "Activity", "setting": "[2]", "value": 52.4, "unit": "%"},
      {"measurement": "fold change (FC)", "setting": "[3]", "value": 0.29},
      {"measurement": "Kd", "setting": "[4]", "value": 16.2, "unit": "µM"},
      {"measurement": "DC50", "setting": "[5]", "value": 0.48, "unit": "µM"},
      {"measurement": "Activity", "setting": "[5]; dose <= 200.0 µM", "value": "Dose-Dependent Effect"},
      {"measurement": "Activity", "setting": "[6]", "value": "inactive"},
      {"measurement": "Activity", "setting": "[7]", "value": "inactive"},
      {"measurement": "inhibition", "setting": "[8]", "value": "Active"},
      {"measurement": "inhibition", "setting": "[9]", "value": "Active"},
      {"measurement": "inhibition", "setting": "[10]", "value": "Active"},
      {"measurement": "inhibition", "setting": "[11]", "value": "Active"},
      {"measurement": "inhibition", "setting": "[12]", "value": "inactive"},
      {"measurement": "Activity", "setting": "[13]", "value": 86.3, "unit": "%"},
      {"measurement": "Activity", "setting": "[14]", "value": 11.7, "unit": "%"},
      {"measurement": "Activity", "setting": "[15]", "value": 55.4, "unit": "%"},
      {"measurement": "Activity", "setting": "[16]", "value": 37.9, "unit": "%"},
      {"measurement": "Activity", "setting": "[17]", "value": 1.74, "unit": "%"},
      {"measurement": "Activity", "setting": "[18]", "value": "Active"},
      {"measurement": "Activity", "setting": "[19]", "value": "Active"},
      {"measurement": "inhibition", "setting": "[20]", "value": "Active"},
      {"measurement": "inhibition", "setting": "[21]", "value": "Tde"},
      {"measurement": "inhibition", "setting": "[22]", "value": "Active"},
      {"measurement": "inhibition", "setting": "[23]", "value": "Active"},
      {"measurement": "inhibition", "setting": "[24]", "value": "Active"},
      {"measurement": "Activity", "setting": "[25]", "value": "Active"},
      {"measurement": "Activity", "setting": "[26]", "value": "Active"},
      {"measurement": "Activity", "setting": "[27]", "value": "Non-Toxic"},
      {"measurement": "inhibition", "setting": "[28]", "value": "Active"},
      {"measurement": "inhibition", "setting": "[29]", "value": "Active"},
      {"measurement": "inhibition", "setting": "[30]", "value": "Active"},
      {"measurement": "inhibition", "setting": "[31]", "value": "Active"},
      {"measurement": "Activity", "setting": "[32]", "value": "Active"},
      {"measurement": "Activity", "setting": "[33]", "value": "Active"},
      {"measurement": "Activity", "setting": "[34]", "value": "Active"}
    ]}
  ]
}
